Biological target: T1, AtPDIL1-2 (Arabidopsis thaliana, UniProt Q9SRG3)
T1 construct: gene PDIL1-2; full-length cDNA (1527 bp ORF, start codon to C-terminal KDEL) in pET-32a, His-tagged fusion about 72 kDa, E. coli, Ni-NTA purified
T1 sequence (Q9SRG3 1-508): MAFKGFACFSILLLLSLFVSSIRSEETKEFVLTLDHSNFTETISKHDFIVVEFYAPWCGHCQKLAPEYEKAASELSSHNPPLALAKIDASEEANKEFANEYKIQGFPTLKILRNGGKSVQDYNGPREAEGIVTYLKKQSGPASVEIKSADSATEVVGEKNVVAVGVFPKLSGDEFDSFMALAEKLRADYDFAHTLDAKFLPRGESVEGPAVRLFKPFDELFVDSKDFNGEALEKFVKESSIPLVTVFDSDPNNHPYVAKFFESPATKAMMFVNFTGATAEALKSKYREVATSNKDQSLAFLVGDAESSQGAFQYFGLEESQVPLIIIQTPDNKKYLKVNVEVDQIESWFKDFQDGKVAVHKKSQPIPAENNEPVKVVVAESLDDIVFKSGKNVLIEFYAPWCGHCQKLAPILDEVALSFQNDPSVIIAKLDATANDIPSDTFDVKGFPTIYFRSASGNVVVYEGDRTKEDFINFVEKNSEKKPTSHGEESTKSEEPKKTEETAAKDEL
Assay: RNase A oxidative refolding assay, cCMP hydrolysis at […] nm
Assay type: biochemical
Conditions: 3.5 uM protein, 10 uM reduced denatured RNase, 4.5 mM cCMP, 1 mM GSH, 0.2 mM GSSG, pH 8; TCP concentration not given

Oc1c(Cl)cc(Cl)cc1Cl [2,4,6-TCP]
maximum inhibition: 16%

Source: PMC5216352, “Disulfide isomerase-like protein AtPDIL1–2 is a good candidate for trichlorophenol phytodetoxification” (Scientific Reports, 2017)
